According to patent publication US20090048332A1, “Natural Novel Antioxidants” (HEJ Research Insitute, priority 2007, published 2009):

Test: superoxide radical scavenging assay (SOR; NADH/PMS/NBT)
Assay type: biochemical
Conditions: for IC50 compared with propyl gallate standard: comparison in words, refers to Table 1; for radical scavenging activity in the SOR assay: qualitative statement; for IC50: super oxide scavenging assay, formazan absorbance at 560 nm after three minutes, concentration needed to scavenge 50% of super oxide radicals, read-out: SOI (IC50 ± SEM)
Description: The reaction mixture contained 10 μL of test samples (1 mM in dimethylsulfoxide), 90 μL of 0.1 M phosphate buffer (pH 7.4), 40 μL of (280 μM) β-nicotanamide adenine dinucleotide (NADH), 40 μL of (80 μM) nitro blue tetrazolium (NBT). The reaction was initiated by the addition of 20 μL of (8 μM) phenazine methosulphate (PMS). The solutions of NADH, NBT and PMS were prepared in phosphate buffer. The formation of superoxide was monitored by measuring the absorbance of the blue formazan dye after three minutes at 560 nm against the corresponding blank solutions in microtitre plate using Elisa (multiple reader spectra Max-3400). IC50 value represents concentration of compounds needed to scavenge 50% of super oxide radicals. Propyl gallate was used as a positive control. All chemicals used were of analytical grade (Sigma Chemicals, USA).

Structure (SMILES) | IC50 compared with propyl gallate standard | IC50 [µM] | radical scavenging activity in the SOR assay | SOR activity on per-methylation (permethylated derivatives of the depsides)
CCCCCc1c2c(cc(O)c1C(=O)O)OC(=O)c1c(cc(OC)cc1C(=O)CCCC)O2 [Lobaric acid, lobaric acid] | lower than the propyl gallate standard | 97.9 ± 1.6 | exceptionally high percentage of radical scavenging activity | 
CCCOC(=O)c1cc(O)c(O)c(O)c1 [propyl gallate, Propyl gallate, reference compound] |  | 106 ± 1.7 |  | 
COC(=O)c1c(C)cc(OC(=O)c2c(C)cc(OC)cc2OC)cc1OC [permethylated lecanoric acid] |  |  |  | lost
COc1ccc(O)c(C(C)(C)C)c1 [BHA, butylated hydroxy anisole, reference compound] |  | 96 ± 1.75 |  | 
Cc1cc(OC(=O)c2c(C)cc(O)cc2O)cc(O)c1C(=O)OC[C@H](O)[C@H](O)CO [Erythrin, erythrin] |  | 127 ± 0.97 | exceptionally high percentage of radical scavenging activity | 

Continued, in another order:

IC50 compared with propyl gallate standard | IC50 [µM] | Structure (SMILES) | radical scavenging activity in the SOR assay | SOR activity on per-methylation (permethylated derivatives of the depsides)
lower than the propyl gallate standard | 81.97 ± 0.31 | CCCc1cc(OC)cc(O)c1C(=O)Oc1c(OC)cc(CCC)c(C(=O)O)c1O [Sekikiac acid, sekikaic acid] | exceptionally high percentage of radical scavenging activity | 
lower than the propyl gallate standard | 91.5 ± 2.1 | Cc1cc(OC(=O)c2c(C)cc(O)cc2O)cc(O)c1C(=O)O [Lecanoric acid, lecanoric acid] | exceptionally high percentage of radical scavenging activity | 
